The values below come from US20260116920A1, “HUMAN TRANSFERRIN RECEPTOR BINDING PEPTIDE” (PEPTIDREAM INC., priority 2021, published 2026).

pKd: −log10 of the molar value. Positions of bridges follow the written chain, without caps; N, C: chain ends. Non-standard residues stand in square brackets, D forms with d. Residues, ends and D or L forms follow the SMILES beside them. Trp(1-CH2COOH) = N[C@@H](Cc1cn(CC(=O)O)c2ccccc12)C(=O)O; NMePhe(3-Cl) = CN[C@@H](Cc1cccc(Cl)c1)C(=O)O; 3Pal(6-NH2) = Nc1ccc(C[C@H](N)C(=O)O)cn1; NMe3Pal = CN[C@@H](Cc1cccnc1)C(=O)O; NMeY = CN[C@@H](Cc1ccc(O)cc1)C(=O)O; 3Pal = N[C@@H](Cc1cccnc1)C(=O)O; 4Pal = N[C@@H](Cc1ccncc1)C(=O)O; PEG4 = NCCOCCOCCOCCOCCC(=O)O

Broadly, the pKd is −log10 of the Kd, conventionally taken in molar units.

For the test, the target named is T1, human transferrin receptor (hTfR) (Homo sapiens, UniProt P02786).
T1 construct: made in house
In words: Evaluation of molecular interaction between transferrin receptor (hTfR) and peptide using surface plasmon resonance (SPR). The format is binding. As to conditions: surface plasmon resonance, binding to hTfR; KD class symbol; read-out: SPR (KD value). The gist of the method:
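Using a Ni-NTA surface bearing covalently coupled hTfR dimer, peptides were tested at five concentrations from 5 to 100 nM. Running buffer was 10 mM HEPES pH 8.0, 150 mM NaCl, 0.05% Tween 20, 0.1% BSA, 1.0% DMSO; single-cycle sensorgrams were least-squares fitted for KD.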
On the technique in general: Surface plasmon resonance follows binding to a sensor surface in real time, without labels.

T1 sequence (P02786 89-760 limits assumed): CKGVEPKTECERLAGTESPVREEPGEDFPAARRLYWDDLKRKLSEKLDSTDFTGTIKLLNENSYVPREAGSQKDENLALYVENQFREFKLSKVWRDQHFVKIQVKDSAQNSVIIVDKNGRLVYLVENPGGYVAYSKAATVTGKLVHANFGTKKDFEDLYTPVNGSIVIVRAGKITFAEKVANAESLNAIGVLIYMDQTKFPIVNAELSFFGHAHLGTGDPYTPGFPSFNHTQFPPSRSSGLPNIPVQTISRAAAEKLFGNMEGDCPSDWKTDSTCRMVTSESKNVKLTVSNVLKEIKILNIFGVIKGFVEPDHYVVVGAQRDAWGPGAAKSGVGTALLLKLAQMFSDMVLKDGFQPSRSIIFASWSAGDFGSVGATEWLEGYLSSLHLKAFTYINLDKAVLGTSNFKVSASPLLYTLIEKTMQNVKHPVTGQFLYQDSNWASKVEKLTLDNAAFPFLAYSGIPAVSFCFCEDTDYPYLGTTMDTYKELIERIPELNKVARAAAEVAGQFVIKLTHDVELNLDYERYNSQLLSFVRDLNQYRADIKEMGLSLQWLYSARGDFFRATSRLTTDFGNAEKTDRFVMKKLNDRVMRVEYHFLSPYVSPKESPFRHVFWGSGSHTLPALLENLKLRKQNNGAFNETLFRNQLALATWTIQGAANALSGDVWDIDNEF

Turning to `CC[C@H](C)[C@@H]1NC(=O)[C@H](Cc2ccc(OCC(=O)O)cc2)NC(=O)[C@H](Cc2ccc(O)cc2)NC(=O)[C@H](CC(N)=O)NC(=O)[C@H](Cc2c[nH]c3ccccc23)NC(=O)[C@H](C(C)C)NC(=O)[C@H](Cc2ccccc2)N(C)C(=O)[C@H](C(C)C)NC(=O)[C@H](C)NC(=O)CSC[C@@H](C(=O)NCCOCCOCCOCCOCCC(N)=O)NC(=O)[C@H](Cc2ccc(O)cc2)N(C)C(=O)[C@H](Cc2ccc(O)cc2)NC(=O)[C@H](CCCNC(=N)N)NC(=O)[C@H](CCCNC(=N)N)NC(=O)[C@H]([C@@H](C)CC)NC1=O` [compound 45], the negative logarithm of the Kd (pKd) is 7.00 to 9.00.
Turning to `CC[C@H](C)[C@@H]1NC(=O)[C@H](Cc2ccc(OCC(=O)O)cc2)NC(=O)[C@H](Cc2ccc(O)cc2)NC(=O)[C@H](CC(N)=O)NC(=O)[C@H](Cc2cn(CC(=O)O)c3ccccc23)NC(=O)[C@H](C(C)C)NC(=O)[C@H](Cc2ccccc2)N(C)C(=O)[C@H](C(C)C)NC(=O)[C@H](C)NC(=O)CSC[C@@H](C(=O)NCCOCCOCCOCCOCCC(N)=O)NC(=O)[C@H](Cc2ccc(O)cc2)N(C)C(=O)[C@H](Cc2ccc(O)cc2)NC(=O)[C@H](CCCNC(=N)N)NC(=O)[C@H](CCCNC(=N)N)NC(=O)[C@H]([C@@H](C)CC)NC1=O` [compound 46], the pKd is 7.00 to 9.00.
The result for `CC[C@H](C)[C@@H]1NC(=O)[C@H](Cc2ccc(OCC(=O)O)cc2)NC(=O)[C@H](Cc2ccc(O)cc2)NC(=O)[C@H](CC(N)=O)NC(=O)[C@H](Cc2cn(CC(=O)O)c3ccccc23)NC(=O)[C@H](C(C)C)NC(=O)[C@H](Cc2cccc(Cl)c2)N(C)C(=O)[C@H](C(C)C)NC(=O)[C@H](C)NC(=O)CSC[C@@H](C(=O)NCC(=O)NCCOCCOCCOCCOCCOCCOCCOCCOCCC(=O)N[C@@H](CCCCN=[N+]=[N-])C(N)=O)NC(=O)[C@H](Cc2ccc(O)cc2)N(C)C(=O)[C@H](Cc2ccccc2)NC(=O)[C@H](CCCNC(=N)N)NC(=O)[C@H](CCCNC(=N)N)NC(=O)[C@H]([C@@H](C)CC)NC1=O` [compound 47] reads 7.00 to 9.00; that for `CC[C@H](C)[C@@H]1NC(=O)[C@H](Cc2cccnc2)NC(=O)[C@H](Cc2ccc(O)cc2)NC(=O)[C@H](CC(N)=O)NC(=O)[C@H](Cc2cn(CC(=O)O)c3ccccc23)NC(=O)[C@H](C(C)C)NC(=O)[C@H](Cc2cccc(Cl)c2)N(C)C(=O)[C@H](C(C)C)NC(=O)[C@H](C)NC(=O)CSC[C@@H](C(=O)NCCOCCOCCOCCOCCC(N)=O)NC(=O)[C@H](Cc2ccc(O)cc2)N(C)C(=O)[C@H](Cc2ccncc2)NC(=O)[C@H](CCCNC(=N)N)NC(=O)[C@H](CCCNC(=N)N)NC(=O)[C@H]([C@@H](C)CC)NC1=O` [compound 48] ({CH2CO}-AV[NMePhe(3-Cl)]V[Trp(1-CH2COOH)]NY[3Pal]IIRR[4Pal][NMeY]C[PEG4]-NH2; thioether N-15), 7.00 to 9.00.
As to `CC[C@H](C)[C@@H]1NC(=O)[C@H](Cc2cccnc2)NC(=O)[C@H](Cc2ccc(N)nc2)NC(=O)[C@H](CC(N)=O)NC(=O)[C@H](Cc2cn(CC(=O)O)c3ccccc23)NC(=O)[C@H](C(C)C)NC(=O)[C@H](Cc2cccc(Cl)c2)N(C)C(=O)[C@H](C(C)C)NC(=O)[C@H](C)NC(=O)CSC[C@@H](C(=O)NCCOCCOCCOCCOCCC(N)=O)NC(=O)[C@H](Cc2ccc(O)cc2)N(C)C(=O)[C@H](Cc2ccncc2)NC(=O)[C@H](CCCNC(=N)N)NC(=O)[C@H](CCCNC(=N)N)NC(=O)[C@H]([C@@H](C)CC)NC1=O` [compound 49] ({CH2CO}-AV[NMePhe(3-Cl)]V[Trp(1-CH2COOH)]N[3Pal(6-NH2)][3Pal]IIRR[4Pal][NMeY]C[PEG4]-NH2; thioether N-15), the negative-log Kd (pKd) was 7.00 to 9.00.
The result for `CC[C@H](C)[C@@H]1NC(=O)[C@H](Cc2ccc(OC)cc2)NC(=O)[C@H](Cc2ccc(N)nc2)NC(=O)[C@H](CC(N)=O)NC(=O)[C@H](Cc2cn(CC(=O)O)c3ccccc23)NC(=O)[C@H](C(C)C)NC(=O)[C@H](Cc2cccc(Cl)c2)N(C)C(=O)[C@H](C(C)C)NC(=O)[C@H](C)NC(=O)CSC[C@@H](C(=O)NCCOCCOCCOCCOCCC(N)=O)NC(=O)[C@H](Cc2ccc(O)cc2)N(C)C(=O)[C@H](Cc2ccncc2)NC(=O)[C@H](CCCNC(=N)N)NC(=O)[C@H](CCCNC(=N)N)NC(=O)[C@H]([C@@H](C)CC)NC1=O` [compound 50] reads 7.00 to 9.00.
The result for `CC[C@H](C)[C@@H]1NC(=O)[C@H](Cc2cccnc2)NC(=O)[C@H](Cc2ccc(O)cc2)NC(=O)[C@H](CC(N)=O)NC(=O)[C@H](Cc2c[nH]c3ccccc23)NC(=O)[C@H](C(C)C)NC(=O)[C@H](Cc2cccc(Cl)c2)N(C)C(=O)[C@H](C(C)C)NC(=O)[C@H](C)NC(=O)CSC[C@@H](C(=O)NCCOCCOCCOCCOCCC(N)=O)NC(=O)[C@H](Cc2ccc(O)cc2)N(C)C(=O)[C@H](Cc2ccncc2)NC(=O)[C@H](CCCNC(=N)N)NC(=O)[C@H](CCCNC(=N)N)NC(=O)[C@H]([C@@H](C)CC)NC1=O` [compound 51] ({CH2CO}-AV[NMePhe(3-Cl)]VWNY[3Pal]IIRR[4Pal][NMeY]C[PEG4]-NH2; thioether N-15) reads 7.00 to 9.00; that for `CC[C@H](C)[C@@H]1NC(=O)[C@H](Cc2cccnc2)NC(=O)[C@H](Cc2ccc(N)nc2)NC(=O)[C@H](CC(N)=O)NC(=O)[C@H](Cc2c[nH]c3ccccc23)NC(=O)[C@H](C(C)C)NC(=O)[C@H](Cc2cccc(Cl)c2)N(C)C(=O)[C@H](C(C)C)NC(=O)[C@H](C)NC(=O)CSC[C@@H](C(=O)NCCOCCOCCOCCOCCC(N)=O)NC(=O)[C@H](Cc2ccc(O)cc2)N(C)C(=O)[C@H](Cc2ccncc2)NC(=O)[C@H](CCCNC(=N)N)NC(=O)[C@H](CCCNC(=N)N)NC(=O)[C@H]([C@@H](C)CC)NC1=O` [compound 52] ({CH2CO}-AV[NMePhe(3-Cl)]VWN[3Pal(6-NH2)][3Pal]IIRR[4Pal][NMeY]C[PEG4]-NH2; thioether N-15), 7.00 to 9.00; that for `CC[C@H](C)[C@@H]1NC(=O)[C@H](Cc2ccc(OC)cc2)NC(=O)[C@H](Cc2ccc(N)nc2)NC(=O)[C@H](CC(N)=O)NC(=O)[C@H](Cc2c[nH]c3ccccc23)NC(=O)[C@H](C(C)C)NC(=O)[C@H](Cc2cccc(Cl)c2)N(C)C(=O)[C@H](C(C)C)NC(=O)[C@H](C)NC(=O)CSC[C@@H](C(=O)NCCOCCOCCOCCOCCC(N)=O)NC(=O)[C@H](Cc2ccc(O)cc2)N(C)C(=O)[C@H](Cc2ccncc2)NC(=O)[C@H](CCCNC(=N)N)NC(=O)[C@H](CCCNC(=N)N)NC(=O)[C@H]([C@@H](C)CC)NC1=O` [compound 53], 7.00 to 9.00.
In the case of `CC[C@H](C)[C@@H]1NC(=O)[C@H](Cc2ccncc2)NC(=O)[C@H](Cc2ccc(O)cc2)NC(=O)[C@H](CC(N)=O)NC(=O)[C@H](Cc2c[nH]c3ccccc23)NC(=O)[C@H](C(C)C)NC(=O)[C@H](Cc2cccc(Cl)c2)N(C)C(=O)[C@H](C(C)C)NC(=O)[C@H](C)NC(=O)CSC[C@@H](C(=O)NCCOCCOCCOCCOCCC(N)=O)NC(=O)[C@H](Cc2ccc(O)cc2)N(C)C(=O)[C@H](Cc2ccncc2)NC(=O)[C@H](CCCNC(=N)N)NC(=O)[C@H](CCCNC(=N)N)NC(=O)[C@H]([C@@H](C)CC)NC1=O` [compound 54] ({CH2CO}-AV[NMePhe(3-Cl)]VWNY[4Pal]IIRR[4Pal][NMeY]C[PEG4]-NH2; thioether N-15), the negative logarithm of the Kd (pKd) was 7.00 to 9.00.
The value for `CC[C@H](C)[C@@H]1NC(=O)[C@H](Cc2ccc(OC)cc2)NC(=O)[C@H](Cc2ccc(O)cc2)NC(=O)[C@H](CC(N)=O)NC(=O)[C@H](Cc2c[nH]c3ccccc23)NC(=O)[C@H](C(C)C)NC(=O)[C@H](Cc2cccnc2)N(C)C(=O)[C@H](C(C)C)NC(=O)[C@H](C)NC(=O)CSC[C@@H](C(=O)NCCOCCOCCOCCOCCC(N)=O)NC(=O)[C@H](Cc2ccc(O)cc2)N(C)C(=O)[C@H](Cc2ccccc2)NC(=O)[C@H](CCCNC(=N)N)NC(=O)[C@H](CCCNC(=N)N)NC(=O)[C@H]([C@@H](C)CC)NC1=O` [compound 55] was 7.00 to 9.00; that for `CC[C@H](C)[C@@H]1NC(=O)[C@H](Cc2ccc(OC)cc2)NC(=O)[C@H](Cc2ccc(O)cc2)NC(=O)[C@H](CC(N)=O)NC(=O)[C@H](Cc2c[nH]c3ccccc23)NC(=O)[C@H](C(C)C)NC(=O)[C@H](Cc2ccncc2)N(C)C(=O)[C@H](C(C)C)NC(=O)[C@H](C)NC(=O)CSC[C@@H](C(=O)NCCOCCOCCOCCOCCC(N)=O)NC(=O)[C@H](Cc2ccc(O)cc2)N(C)C(=O)[C@H](Cc2ccccc2)NC(=O)[C@H](CCCNC(=N)N)NC(=O)[C@H](CCCNC(=N)N)NC(=O)[C@H]([C@@H](C)CC)NC1=O` [compound 56] was 7.00 to 9.00.
The value for `CC[C@H](C)[C@@H]1NC(=O)[C@H](Cc2ccc(OC)cc2)NC(=O)[C@H](Cc2ccc(N)nc2)NC(=O)[C@H](CC(N)=O)NC(=O)[C@H](Cc2c[nH]c3ccccc23)NC(=O)[C@H](C(C)C)NC(=O)[C@H](Cc2cccc(Cl)c2)N(C)C(=O)[C@H](C(C)C)NC(=O)[C@H](C)NC(=O)CSC[C@@H](C(=O)NCCOCCOCCOCCOCCC(N)=O)NC(=O)[C@H](Cc2ccc(O)cc2)N(C)C(=O)[C@H](Cc2ccccc2)NC(=O)[C@H](CCCNC(=N)N)NC(=O)[C@H](CCCNC(=N)N)NC(=O)[C@H]([C@@H](C)CC)NC1=O` [compound 57] ({CH2CO}-AV[NMePhe(3-Cl)]VWN[3Pal(6-NH2)]Y(Me)IIRRF[NMeY]C[PEG4]-NH2; thioether N-15) was 7.00 to 9.00; that for `CC[C@H](C)[C@@H]1NC(=O)[C@H](Cc2ccc(OC)cc2)NC(=O)[C@H](Cc2ccc(O)cc2)NC(=O)[C@H](CC(N)=O)NC(=O)[C@H](Cc2c[nH]c3ccccc23)NC(=O)[C@H](C(C)C)NC(=O)[C@H](Cc2cccnc2)N(C)C(=O)[C@H](C(C)C)NC(=O)[C@H](C)NC(=O)CSC[C@@H](C(=O)NCCOCCOCCOCCOCCC(N)=O)NC(=O)[C@H](Cc2ccc(O)cc2)N(C)C(=O)[C@H](Cc2ccncc2)NC(=O)[C@H](CCCNC(=N)N)NC(=O)[C@H](CCCNC(=N)N)NC(=O)[C@H]([C@@H](C)CC)NC1=O` [compound 58] ({CH2CO}-AV[NMe3Pal]VWNYY(Me)IIRR[4Pal][NMeY]C[PEG4]-NH2; thioether N-15) was 7.00 to 9.00.
